Data: PubChem BioAssay (NCI)
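GI50 marks 50% less growth. TGI marks complete inhibition of growth.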

Columns and labels:
Assay in all cases: NCI-60 cell line screen, 384-well format
[1] = tested on: 786-0 renal
[2] = tested on: A498 renal
[3] = tested on: A549 NSCLC
[4] = tested on: ACHN renal
[5] = tested on: BT-549 breast
[6] = tested on: CAKI-1 renal
[7] = tested on: CCRF-CEM leukemia
[8] = tested on: COLO 205 colon
[9] = tested on: DU-145 prostate
[10] = tested on: EKVX NSCLC
[11] = tested on: HCC-2998 colon
[12] = tested on: HCT-116 colon
[13] = tested on: HCT-15 colon
[14] = tested on: HL-60(TB) leukemia
[15] = tested on: HOP-62 NSCLC
[16] = tested on: HOP-92 NSCLC
[17] = tested on: HT29 colon
[18] = tested on: IGROV1 ovarian
[19] = tested on: K-562 leukemia
[20] = tested on: KM12 colon
[21] = tested on: LOX IMVI melanoma
[22] = tested on: M14 melanoma
[23] = tested on: MALME-3M melanoma
[24] = tested on: MCF7 breast
[25] = tested on: MDA-MB-231 breast
[26] = tested on: MDA-MB-435 melanoma
[27] = tested on: MDA-MB-468 breast
[28] = tested on: MOLT-4 leukemia
[29] = tested on: NCI-H226 lung
[30] = tested on: NCI-H23 lung
[31] = tested on: NCI-H322M lung
[32] = tested on: NCI-H460 NSCLC
[33] = tested on: NCI-H522 lung
[34] = tested on: NCI/ADR-RES ovarian
[35] = tested on: OVCAR-3 ovarian
[36] = tested on: OVCAR-4 ovarian
[37] = tested on: OVCAR-5 ovarian
[38] = tested on: OVCAR-8 ovarian
[39] = tested on: PC-3 prostate
[40] = tested on: RPMI-8226 leukemia
[41] = tested on: RXF 393 renal
[42] = tested on: SF-268 CNS
[43] = tested on: SF-295 CNS
[44] = tested on: SF-539 CNS
[45] = tested on: SK-MEL-2 melanoma
[46] = tested on: SK-MEL-28 melanoma
[47] = tested on: SK-MEL-5 melanoma
[48] = tested on: SK-OV-3 ovarian
[49] = tested on: SN12C renal
[50] = tested on: SNB-19 CNS
[51] = tested on: SNB-75 CNS
[52] = tested on: SR leukemia
[53] = tested on: SW-620 colon
[54] = tested on: T-47D breast
[55] = tested on: TK-10 renal
[56] = tested on: U251 glioblastoma
[57] = tested on: UACC-257 melanoma
[58] = tested on: UACC-62 melanoma
[59] = tested on: UO-31 renal

For `CC(C)(C[C@H]1CN(S(=O)(=O)c2cccc(C(F)(F)F)c2)c2cc(-c3cc(F)cc(OC(F)F)c3)ccc2O1)C(=O)O`, the GI50 [1] was 9.51 µM, the TGI [1] was 22.8 µM and the GI50 [2] was 4.35 µM. For the same molecule, the TGI [2] was 15.5 µM, the GI50 [3] was 4.28 µM and the TGI [3] was 15.5 µM. It also gave a GI50 [4] of 13.4 µM, a TGI [4] of 26.7 µM and a GI50 [5] of 2.8 µM. The TGI [5] was 9.11 µM, the GI50 [6] was 6.92 µM and the TGI [6] was 19 µM. For the same molecule, the GI50 [7] was 6.52 µM, the TGI [7] was 18.4 µM and the GI50 [8] was 5.83 µM. It also gave a TGI [8] of 15.3 µM, a GI50 [9] of 10.1 µM and a TGI [9] of 21.9 µM. For the same molecule, the GI50 [10] was 10.7 µM, the TGI [10] was 22.8 µM and the GI50 [11] was 6.63 µM. The TGI [11] was 20.7 µM, the GI50 [12] was 7.93 µM and the TGI [12] was 20.5 µM. For the same molecule, the GI50 [13] was 4.15 µM, the TGI [13] was 14.1 µM and the GI50 [14] was 2.74 µM. The TGI [14] was 4.91 µM, the GI50 [15] was 4.81 µM and the TGI [15] was 16.7 µM. For the same molecule, the GI50 [16] was 7.09 µM, the TGI [16] was 20 µM and the GI50 [17] was 3.97 µM. For the same molecule, the TGI [17] was 13.6 µM, the GI50 [18] was 7.94 µM and the TGI [18] was 20.9 µM. For the same molecule, the GI50 [19] was 3.18 µM, the TGI [19] was 12.1 µM and the GI50 [20] was 4.06 µM. The TGI [20] was 14.4 µM, the GI50 [21] was 12.8 µM and the TGI [21] was 25.4 µM. The GI50 [22] was 4.53 µM, the TGI [22] was 15.3 µM and the GI50 [23] was 11.5 µM. For the same molecule, the TGI [23] was 24.5 µM, the GI50 [24] was 4.82 µM and the TGI [24] was 17.2 µM. For the same molecule, the GI50 [25] was 8.82 µM, the TGI [25] was 21.4 µM and the GI50 [26] was 2.04 µM. For the same molecule, the TGI [26] was 4.48 µM, the GI50 [27] was 2.66 µM and the TGI [27] was 7.31 µM. For the same molecule, the GI50 [28] was 3.11 µM, the TGI [28] was 8.3 µM and the GI50 [29] was 8.64 µM. The TGI [29] was 22 µM, the GI50 [30] was 3.38 µM and the TGI [30] was 10.7 µM. For the same molecule, the GI50 [31] was 12.6 µM, the TGI [31] was 25.6 µM and the GI50 [32] was 4.04 µM. For the same molecule, the TGI [32] was 13 µM, the GI50 [33] was 2.66 µM and the TGI [33] was 7.35 µM. It also gave a GI50 [34] of 2.52 µM, a TGI [34] of 7.17 µM and a GI50 [35] of 2.46 µM. For the same molecule, the TGI [35] was 7.45 µM, the GI50 [36] was 9.12 µM and the TGI [36] was 21.5 µM. For the same molecule, the GI50 [37] was 16.3 µM, the TGI [37] was 29.9 µM and the GI50 [38] was 9.79 µM. It also gave a TGI [38] of 22.1 µM, a GI50 [39] of 8.44 µM and a TGI [39] of 20.8 µM. It also gave a GI50 [40] of 2.78 µM, a TGI [40] of 6.15 µM and a GI50 [41] of 4.02 µM. It also gave a TGI [41] of 11.1 µM, a GI50 [42] of 9.85 µM and a TGI [42] of 22.6 µM. It also gave a GI50 [43] of 3.02 µM, a TGI [43] of 10.3 µM and a GI50 [44] of 6 µM. It also gave a TGI [44] of 18.4 µM, a GI50 [45] of 2.73 µM and a TGI [45] of 7.34 µM. The GI50 [46] was 7.37 µM, the TGI [46] was 20.1 µM and the GI50 [47] was 3.86 µM. It also gave a TGI [47] of 13.5 µM, a GI50 [48] of 9.09 µM and a TGI [48] of 21.4 µM. For the same molecule, the GI50 [49] was 10.3 µM, the TGI [49] was 22.4 µM and the GI50 [50] was 8.54 µM. The TGI [50] was 20.5 µM, the GI50 [51] was 17.4 µM and the TGI [51] was 31.2 µM. The GI50 [52] was 1.51 µM, the TGI [52] was 2.9 µM and the GI50 [53] was 2.92 µM. It also gave a TGI [53] of 7.59 µM, a GI50 [54] of 5.89 µM and a TGI [54] of 18.9 µM. The GI50 [55] was 10.6 µM, the TGI [55] was 23.1 µM and the GI50 [56] was 7.65 µM. The TGI [56] was 20.2 µM, the GI50 [57] was 8.84 µM and the TGI [57] was 23.2 µM. The GI50 [58] was 3.84 µM, the TGI [58] was 13.6 µM and the GI50 [59] was 10.5 µM. It also gave a TGI [59] of 22.3 µM.
